Molecular target: T1, cathepsin B (cathepsin B-like cysteine protease) (Leishmania chagasi, UniProt Q9GQN7)
T1 construct: native enzyme in amastigote lysate
Assay: spectrofluorometric protease assay in amastigote lysate with cathepsin B-specific substrate Abz-Gly-Ile-Val-Arg-Ala-Lys(Dnp)-OH
Format: biochemical

T1 sequence (Q9GQN7 entry or part of it): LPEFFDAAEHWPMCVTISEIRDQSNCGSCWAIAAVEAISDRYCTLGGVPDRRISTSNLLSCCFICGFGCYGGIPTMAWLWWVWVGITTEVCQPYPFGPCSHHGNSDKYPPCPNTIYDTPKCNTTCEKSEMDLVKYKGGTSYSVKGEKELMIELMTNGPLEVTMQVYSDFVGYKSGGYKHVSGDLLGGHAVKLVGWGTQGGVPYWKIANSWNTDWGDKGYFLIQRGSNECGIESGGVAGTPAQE

`CCCNC(=O)[C@H]1O[C@@H]1C(=O)N[C@H](C(=O)N1CCC[C@H]1C(=O)O)[C@@H](C)CC` [CA074] was tested, and the IC50 was 2.41 ± 0.15 µM.
`COc1ccc([Te]2(Cl)OC3(CCCCC3)/C2=C\Cl)cc1` (centres unmarked) [RF07, 4-{2-Chloro-3-[chloromethylidene]-1-oxa-2-λ^4-telluraspiro[3.5]non-2-yl}phenyl Methyl Ether] showed an IC50 of 4.47 ± 0.13 µM.
